Numbers after ± are expanded uncertainties.
Assays:
[1] = Crystal; DTA
[2] = Molar enthalpy of transition or fusion; conditions: Crystal; DSC

COc1ccc(C(=O)O)cc1OC [3,4-dimethoxybenzoic acid]
Normal melting temperature [1]: 179.97 ± 0.53 °C | Molar enthalpy of transition or fusion [2]: 29.6 ± 1.3 kJ/mol

— the NIST ThermoML archive (doi:10.1021/je400029t)
